Measurements taken from US20180051221A1, “UNLEADED GASOLINE FORMULATIONS FOR PISTON ENGINES” (Swift Fuels, LLC, priority 2014, published 2018).
Read-outs that look alike come from different tables or passages of the source.

Assays:
[1] = Octane enhancement by aromatic amines blended into aviation gasoline (compared to baseline avgas); conditions: for Octane @ 6%*: amine at 6% in aviation gasoline; for Octane @ 9%*: amine at 9% in aviation gasoline
[2] = Solubility / physical state remarks on aromatic amines as avgas components; assay type: physicochemical; conditions: remark on solubility above 6% or solid state at RT; b32 calls these solubility problems
rat = conditions: cited from earlier work
[3] = occupational exposure limit, estimated; cited from earlier work
[4] = within 10 days; cited from earlier work
[5] = cited from earlier work; for OSHA Hazards: public MSDS / OSHA data
[6] = oral, MSDS data from Sigma-Aldrich, et al.

Compound	Octane @ 6%* [1]	Octane @ 9%* [1]	also measured
Nc1cc(F)c(F)c(F)c1F [2,3,4,5-tetrafluorophenylamine]	1.70	2.50	Other [2]: solid@RT
Nc1ccccc1Cl [2-chlorophenylamine]	4.50	5.60	
Cc1ccc(N)c(F)c1 [2-fluoro-4-metylphenylamine]	4.00	5.10	
Cc1ccc(F)c(N)c1 [2-fluoro-5-metylphenylamine]	3.60	5.10	
Nc1ccccc1F [2-fluorophenylamine]	4.20	7.30	
Cc1ccccc1N [2-methylphenylamine]	1.70	2.10	
Cc1ccc(N)cc1C [3,4-dimethylphenylamine]	5.60		
Cc1cc(C)cc(N)c1 [3,5-dimethylphenylamine]	5.70	8.70	
Nc1cccc(Cl)c1 [3-chlorophenylamine]	3.60		
CCc1cccc(N)c1 [3-ethylphenylamine]	3.80	6.60	
Cc1c(N)cccc1F [3-fluoro-2-metylphenylamine]	1.30	2.70	
Nc1cccc(F)c1 [3-fluorophenylamine]	4.20	6.70	
Cc1cccc(N)c1 [3-methylphenylamine]	5.40	7.40	LD50 (rat, oral) (rat; in vivo, po): 450 mg/kg
CCc1ccc(N)cc1 [4-ethylphenylamine]	3.80	6.30	
Cc1cc(F)ccc1N [4-fluoro-2-metylphenylamine]	1.60	2.10	
Nc1ccc(F)cc1 [4-fluorophenylamine]	4.20	7.50	
Cc1ccc(N)cc1 [4-methylphenylamine]	6.10		
CC(C)(C)c1ccc(N)cc1 [4-t-butylphenylamine]	4.20	6.60	
Cc1ccc(F)cc1N [5-fluoro-2-metylphenylamine]	1.60	2.10	
c1ccccc1 [Benzene]			LD50 (rat, oral) (rat; in vivo, po): 2,990 mg/kg
CC(C)c1ccc(N)cc1 [Cumidine, 4-isopropylaniline]	4.40	7.20	TWA [3]: ~2 ppm; biodegradable [4]: 88%; LD50 (rat, oral) (rat; oral, MSDS No. 818472, EMD Millipore): 757 mg/kg; LD50 (rat, oral) (rat; [6]): 757 mg/kg; classification as mutagen or carcinogen ([5]; MSDS No. 818472, EMD Millipore): not classified as a mutagen or carcinogen
CCOC(C)(C)C [ETBE, ethyl tert-butyl ether]			LD50 (rat, oral) (rat; [6]): 5,000 mg/kg; OSHA Hazards [5]: Irritant
Cc1cc(C)cc(C)c1 [Mesitylene]			LD50 (rat, oral) (rat; [6]): 5,000 mg/kg
CCNc1ccccc1 [N-ethylphenylamine]	−2.50		
CNc1ccc(F)cc1 [N-methyl-4-fluorophenylamine]	2.50	2.60	
CNc1ccccc1 [N-methylphenylamine]	2.10	2.60	
C[CH2][Pb]([CH2]C)([CH2]C)[CH2]C [TEL, Tetraethyl lead]			LD50 (rat, oral) (rat; [6]): 14 mg/kg
Cc1ccccc1 [Toluene]			LD50 (rat, oral) (rat; [6]): 5,000 mg/kg
Nc1ccccc1 [phenylamine]	5.70	8.70	LD50 (rat, oral) (rat; in vivo, po): 250 mg/kg; OSHA Hazards ([5]; listed as aniline): irritant
